This note sets out measurements from ChEMBL document CHEMBL5360622, “Leucettinibs, a Class of DYRK/CLK Kinase Inhibitors Inspired by the Marine Sponge Natural Product Leucettamine B” (J Med Chem, 2023).

For experiment [1], the target named is T1, Dual specificity tyrosine-phosphorylation-regulated kinase 2 (Homo sapiens, UniProt Q92630).
T1 sequence (Q92630 whole entry): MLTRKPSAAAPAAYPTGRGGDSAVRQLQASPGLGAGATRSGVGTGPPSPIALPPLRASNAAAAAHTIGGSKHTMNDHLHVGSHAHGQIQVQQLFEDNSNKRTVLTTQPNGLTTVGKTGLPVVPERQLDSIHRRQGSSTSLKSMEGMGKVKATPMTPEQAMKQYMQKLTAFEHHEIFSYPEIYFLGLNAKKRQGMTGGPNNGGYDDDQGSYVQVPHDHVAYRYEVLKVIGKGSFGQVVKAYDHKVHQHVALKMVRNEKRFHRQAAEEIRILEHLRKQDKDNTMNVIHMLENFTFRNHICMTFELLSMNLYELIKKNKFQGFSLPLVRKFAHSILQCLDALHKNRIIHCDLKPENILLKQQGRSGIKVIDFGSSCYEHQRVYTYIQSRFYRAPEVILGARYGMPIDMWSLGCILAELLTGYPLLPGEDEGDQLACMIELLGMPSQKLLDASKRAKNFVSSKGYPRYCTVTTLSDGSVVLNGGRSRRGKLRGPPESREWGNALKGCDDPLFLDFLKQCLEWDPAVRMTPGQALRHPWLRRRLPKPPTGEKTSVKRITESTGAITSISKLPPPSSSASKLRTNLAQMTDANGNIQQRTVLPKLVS

In experiment [2] the target is Dual specificity protein kinase CLK2 (Homo sapiens, UniProt P49760).
The target of experiment [3] is Dual specificity protein kinase CLK1 (Homo sapiens, UniProt P49759). The class given is cell-based, Sf9.
The target of experiment [4] is Casein kinase I isoform epsilon (Homo sapiens, UniProt P49674).
Experiment [5] deals with Glycogen synthase kinase-3 beta (Homo sapiens, UniProt P49841). The experiment is classed as cell-based, Sf9.
The target of experiment [6] is Cyclin-dependent kinase 5/CDK5 activator 1 (Homo sapiens, UniProt Q00535). The experiment is classed as cell-based, Sf9.
Experiment [7] deals with T2, Dual specificity tyrosine-phosphorylation-regulated kinase 4 (Homo sapiens, UniProt Q9NR20).
T2 sequence (Q9NR20 whole entry): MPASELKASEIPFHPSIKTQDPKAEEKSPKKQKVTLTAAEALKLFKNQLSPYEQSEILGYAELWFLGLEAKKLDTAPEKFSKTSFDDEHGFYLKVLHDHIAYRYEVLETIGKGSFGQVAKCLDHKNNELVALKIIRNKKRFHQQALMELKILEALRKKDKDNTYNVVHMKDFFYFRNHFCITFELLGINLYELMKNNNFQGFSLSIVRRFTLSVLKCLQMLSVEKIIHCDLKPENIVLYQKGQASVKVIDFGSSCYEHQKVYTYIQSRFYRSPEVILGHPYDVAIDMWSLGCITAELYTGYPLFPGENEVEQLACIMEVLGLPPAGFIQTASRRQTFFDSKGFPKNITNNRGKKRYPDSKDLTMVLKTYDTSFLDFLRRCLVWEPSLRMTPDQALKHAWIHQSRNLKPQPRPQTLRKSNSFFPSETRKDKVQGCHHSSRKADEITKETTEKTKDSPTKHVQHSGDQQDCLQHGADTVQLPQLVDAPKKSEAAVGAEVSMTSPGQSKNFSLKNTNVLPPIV

In experiment [8] the target is Dual specificity protein kinase CLK3 (Homo sapiens, UniProt P49761). The experiment is classed as cell-based, Sf9.
Experiment [9] addresses T3, Dual specificity tyrosine-phosphorylation-regulated kinase 3 (Homo sapiens, UniProt O43781).
T3 sequence (O43781 whole entry): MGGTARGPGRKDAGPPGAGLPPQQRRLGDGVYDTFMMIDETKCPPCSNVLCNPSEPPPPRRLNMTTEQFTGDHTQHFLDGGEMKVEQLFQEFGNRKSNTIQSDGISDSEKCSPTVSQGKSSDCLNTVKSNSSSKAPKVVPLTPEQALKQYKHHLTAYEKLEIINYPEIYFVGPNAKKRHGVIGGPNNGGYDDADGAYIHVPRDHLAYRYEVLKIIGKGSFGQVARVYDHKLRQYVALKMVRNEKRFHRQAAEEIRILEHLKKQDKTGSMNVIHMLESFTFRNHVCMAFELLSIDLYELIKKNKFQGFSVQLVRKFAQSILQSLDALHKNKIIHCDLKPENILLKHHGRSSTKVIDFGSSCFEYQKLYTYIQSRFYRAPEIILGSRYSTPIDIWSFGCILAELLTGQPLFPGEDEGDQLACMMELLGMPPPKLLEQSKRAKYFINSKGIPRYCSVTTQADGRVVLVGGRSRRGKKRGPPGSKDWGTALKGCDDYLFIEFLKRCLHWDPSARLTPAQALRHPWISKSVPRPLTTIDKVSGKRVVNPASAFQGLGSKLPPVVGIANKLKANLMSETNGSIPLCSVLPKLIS

The target of experiment [10] is Dual specificity protein kinase CLK4 (Homo sapiens, UniProt Q9HAZ1).

SMILES strings stand for the structures.

Broadly, the IC50 is the concentration at which inhibition is half-maximal. Low readings indicate greater potency in that assay, high ones weaker potency in that assay.

Chain of Glycogen synthase kinase-3 beta (P49841 whole entry): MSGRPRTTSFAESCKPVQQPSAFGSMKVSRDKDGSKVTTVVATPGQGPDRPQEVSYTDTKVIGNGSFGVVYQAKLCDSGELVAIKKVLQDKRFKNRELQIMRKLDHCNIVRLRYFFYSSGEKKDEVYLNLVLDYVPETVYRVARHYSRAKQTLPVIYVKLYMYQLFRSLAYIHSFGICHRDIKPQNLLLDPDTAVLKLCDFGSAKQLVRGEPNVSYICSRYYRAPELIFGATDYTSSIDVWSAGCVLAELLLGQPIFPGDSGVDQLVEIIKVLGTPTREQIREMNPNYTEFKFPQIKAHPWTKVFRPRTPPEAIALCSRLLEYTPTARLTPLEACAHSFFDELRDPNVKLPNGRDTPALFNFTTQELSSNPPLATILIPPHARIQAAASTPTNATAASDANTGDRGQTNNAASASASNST
Chain of Cyclin-dependent kinase 5/CDK5 activator 1 (Q00535 whole entry): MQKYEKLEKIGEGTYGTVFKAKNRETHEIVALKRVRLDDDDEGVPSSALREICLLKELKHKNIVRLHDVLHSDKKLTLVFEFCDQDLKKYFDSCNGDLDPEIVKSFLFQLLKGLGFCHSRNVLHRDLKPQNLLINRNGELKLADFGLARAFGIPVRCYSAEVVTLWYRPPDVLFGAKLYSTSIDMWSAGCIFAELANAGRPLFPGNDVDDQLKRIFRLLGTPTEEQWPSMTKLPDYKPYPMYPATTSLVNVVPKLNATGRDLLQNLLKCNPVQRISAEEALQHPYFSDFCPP
Chain of Cyclin-dependent kinase 5/CDK5 activator 1 (Q15078 whole entry, further chain): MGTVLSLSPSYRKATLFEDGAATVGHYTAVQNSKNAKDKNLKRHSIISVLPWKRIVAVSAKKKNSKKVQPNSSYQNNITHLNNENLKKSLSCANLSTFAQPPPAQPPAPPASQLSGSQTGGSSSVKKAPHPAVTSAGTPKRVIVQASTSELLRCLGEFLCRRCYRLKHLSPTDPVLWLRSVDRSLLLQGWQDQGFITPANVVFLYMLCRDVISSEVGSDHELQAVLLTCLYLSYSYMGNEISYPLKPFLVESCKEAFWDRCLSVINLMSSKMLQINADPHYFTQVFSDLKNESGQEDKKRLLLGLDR
Chain of Casein kinase I isoform epsilon (P49674 whole entry, canonical isoform): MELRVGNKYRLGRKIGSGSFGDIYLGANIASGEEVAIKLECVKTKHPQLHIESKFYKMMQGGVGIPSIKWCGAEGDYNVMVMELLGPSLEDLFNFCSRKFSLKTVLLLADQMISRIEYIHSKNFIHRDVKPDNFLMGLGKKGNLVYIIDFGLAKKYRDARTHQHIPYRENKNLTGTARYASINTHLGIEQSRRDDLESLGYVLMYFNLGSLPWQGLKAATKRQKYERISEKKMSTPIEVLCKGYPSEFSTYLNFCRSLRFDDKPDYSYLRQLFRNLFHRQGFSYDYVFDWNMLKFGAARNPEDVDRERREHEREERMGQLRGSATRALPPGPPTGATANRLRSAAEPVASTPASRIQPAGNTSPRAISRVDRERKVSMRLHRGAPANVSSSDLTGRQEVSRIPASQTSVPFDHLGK
Chain of Dual specificity protein kinase CLK3 (P49761 whole entry): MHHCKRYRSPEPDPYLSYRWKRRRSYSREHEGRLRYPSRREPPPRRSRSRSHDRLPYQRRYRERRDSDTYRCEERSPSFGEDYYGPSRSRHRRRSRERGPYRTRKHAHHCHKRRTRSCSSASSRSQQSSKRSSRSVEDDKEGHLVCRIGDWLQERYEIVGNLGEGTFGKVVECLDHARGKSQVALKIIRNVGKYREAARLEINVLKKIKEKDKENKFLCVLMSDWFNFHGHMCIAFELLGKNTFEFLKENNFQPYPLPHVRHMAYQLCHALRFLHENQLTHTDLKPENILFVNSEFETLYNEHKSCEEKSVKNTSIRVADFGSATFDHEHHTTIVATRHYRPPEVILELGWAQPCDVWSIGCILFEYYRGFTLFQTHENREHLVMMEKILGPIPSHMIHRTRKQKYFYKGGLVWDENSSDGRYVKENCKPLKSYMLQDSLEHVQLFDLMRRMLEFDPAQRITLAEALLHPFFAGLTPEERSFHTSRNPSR
Chain of Dual specificity protein kinase CLK1 (P49759 whole entry, canonical isoform): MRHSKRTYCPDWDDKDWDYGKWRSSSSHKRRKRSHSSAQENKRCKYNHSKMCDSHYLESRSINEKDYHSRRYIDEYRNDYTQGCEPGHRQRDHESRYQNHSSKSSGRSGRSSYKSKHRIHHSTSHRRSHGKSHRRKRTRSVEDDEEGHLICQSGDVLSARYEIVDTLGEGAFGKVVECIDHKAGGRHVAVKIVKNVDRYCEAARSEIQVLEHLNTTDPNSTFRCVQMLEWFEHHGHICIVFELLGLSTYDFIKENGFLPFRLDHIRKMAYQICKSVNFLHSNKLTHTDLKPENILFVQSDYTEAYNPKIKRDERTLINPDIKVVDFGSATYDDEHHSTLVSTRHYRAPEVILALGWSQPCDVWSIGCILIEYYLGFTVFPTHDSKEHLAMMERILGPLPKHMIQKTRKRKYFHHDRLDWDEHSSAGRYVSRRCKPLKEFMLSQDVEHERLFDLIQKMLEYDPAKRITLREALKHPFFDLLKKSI
Chain of Dual specificity protein kinase CLK4 (Q9HAZ1 whole entry): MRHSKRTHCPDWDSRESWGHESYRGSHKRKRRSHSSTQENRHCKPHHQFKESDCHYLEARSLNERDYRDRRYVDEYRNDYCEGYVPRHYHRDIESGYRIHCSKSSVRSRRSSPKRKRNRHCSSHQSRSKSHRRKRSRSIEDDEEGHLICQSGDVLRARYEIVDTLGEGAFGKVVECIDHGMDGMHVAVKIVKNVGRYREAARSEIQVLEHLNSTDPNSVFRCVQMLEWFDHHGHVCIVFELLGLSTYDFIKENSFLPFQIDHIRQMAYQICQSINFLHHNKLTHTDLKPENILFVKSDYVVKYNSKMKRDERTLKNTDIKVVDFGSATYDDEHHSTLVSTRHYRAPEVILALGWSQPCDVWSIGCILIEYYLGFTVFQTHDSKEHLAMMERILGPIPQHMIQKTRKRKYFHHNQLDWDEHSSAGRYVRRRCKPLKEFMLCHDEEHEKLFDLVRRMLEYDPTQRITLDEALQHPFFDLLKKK
Chain of Dual specificity protein kinase CLK2 (P49760 whole entry): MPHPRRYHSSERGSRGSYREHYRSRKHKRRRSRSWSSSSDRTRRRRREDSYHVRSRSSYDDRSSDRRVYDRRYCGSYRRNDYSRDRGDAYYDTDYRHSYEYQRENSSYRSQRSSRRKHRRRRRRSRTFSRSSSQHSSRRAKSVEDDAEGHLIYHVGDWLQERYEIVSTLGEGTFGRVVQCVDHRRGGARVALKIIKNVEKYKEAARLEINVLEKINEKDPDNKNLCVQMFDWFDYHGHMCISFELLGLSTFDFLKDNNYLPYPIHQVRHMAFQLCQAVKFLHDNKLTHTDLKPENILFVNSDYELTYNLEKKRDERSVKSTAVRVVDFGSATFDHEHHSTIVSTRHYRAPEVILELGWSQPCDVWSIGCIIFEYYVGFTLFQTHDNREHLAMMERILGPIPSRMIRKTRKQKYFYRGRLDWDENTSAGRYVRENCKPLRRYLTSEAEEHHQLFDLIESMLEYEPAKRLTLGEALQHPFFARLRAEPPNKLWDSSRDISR

Take `CC(C)C[C@@H](CF)NC1=N/C(=C\c2ccc3ncsc3c2)C(=O)N1`: the IC50 in experiment [1] was 263 nM; in experiment [2] it was 33 nM; in experiment [3] it was 7 nM; in experiment [4] it was over 10000 nM; in [5], 6290 nM; in [6], over 10000 nM. Besides, the IC50 was 385 nM in [7], 1390 nM in experiment [8] and 227 nM in experiment [9].

As for `O=C1NC(NC2CCCCC2)=N/C1=C\c1ccc2scnc2c1`, the IC50 in [1], in [2], in experiment [3], in [4], in [5] and in experiment [6] was over 10000 nM throughout. For the same compound, the values for the 50% inhibitory concentration (IC50) in experiment [10] and in [8] were 7160 nM and over 10000 nM, respectively.

In the case of `CN1CC[C@](C)(NC2=N/C(=C\c3ccc4ncsc4c3)C(=O)N2)C1=O` (stereo in doubt), the IC50 is 1720 nM in [1]; 450 nM in experiment [2]; 125 nM in experiment [3]; over 10000 nM in experiment [4]; over 10000 nM in [5]; over 10000 nM in experiment [6]. Moreover, the concentration for half-maximal inhibition (IC50) in experiment [7] came to 1680 nM; in experiment [8], 927 nM; in experiment [9], 1480 nM.

On to `O=C1NC(NC2CCCCCC2)=N/C1=C\c1ccc2nnsc2c1`, for which the 50% inhibitory concentration (IC50) was over 10000 nM in experiment [1]; 2830 nM in experiment [2]; 270 nM in experiment [3]; over 10000 nM in experiment [4]; over 10000 nM in experiment [5]; over 10000 nM in experiment [6]. In addition, the 50% inhibitory concentration (IC50) is over 10000 nM in experiment [7], 172 nM in [10] and over 10000 nM in [8].

On to `O=C1NC(Nc2cccc(C(F)(F)F)c2)=N/C1=C\c1ccc2ncsc2c1`, for which the IC50 is 2500 nM in experiment [1]; 696 nM in experiment [2]; 193 nM in experiment [3]; over 10000 nM in [4]; over 10000 nM in experiment [5]; over 10000 nM in experiment [6]. The 50% inhibitory concentration (IC50) is over 10000 nM in experiment [7], 7030 nM in experiment [8] and 5730 nM in experiment [9].

For the compound `CCOC[C@@H](CC(C)C)NC1=N/C(=C\c2ccc3ncsc3c2)C(=O)N1`, the IC50 in experiment [1] is 145 nM; in [2] it was 110 nM; in experiment [3] it was 13 nM; in [4] it was over 10000 nM; in experiment [5] it was 2680 nM; in experiment [6] it was over 10000 nM. The values for the IC50 in experiment [7], in experiment [10] and in [8] were 987 nM, 4 nM and 413 nM, respectively.

As to `CC(C)C[C@H](COC1CC1)NC1=N/C(=C\c2ccc3ncsc3c2)C(=O)N1`, the IC50 in experiment [1] is 125 nM; in experiment [2] it was 121 nM; in experiment [3], 17 nM; in experiment [4], over 10000 nM; in [5], 3600 nM; in [6], over 10000 nM. In addition, the IC50 in [7] is 1380 nM; in experiment [10], 5 nM; in [8], 211 nM.

As for `C[C@@H]1CCCC[C@H]1NC1=N/C(=C\c2ccc3ncsc3c2)C(=O)N1` (racemic), the half-inhibitory concentration (IC50) in experiment [1] was 549 nM; in experiment [2], 114 nM; in experiment [3] it was 17 nM; in experiment [4] it was over 10000 nM; in experiment [5], 8360 nM; in [6], over 10000 nM. Further, the results for the IC50 in experiment [7], in experiment [8] and in experiment [9] were 538 nM, 914 nM and 531 nM, respectively.

`CN1CCN(c2ccc(NC3=N/C(=C\c4ccc5c(c4)OCO5)C(=O)N3)cc2)CC1`: the concentration for half-maximal inhibition (IC50) was 35 nM in [2]; 23 nM in [3]; 1200 nM in experiment [5]; 16 nM in [10]; 800 nM in experiment [8]; 120 nM in [9].

Turning to `O=C1NC(NC2CC3(CCC3)C2)=N/C1=C\c1ccc2ncsc2c1`, the half-maximal inhibitory concentration (IC50) in experiment [1] was 1080 nM; in [2] it was 183 nM; in experiment [3] it was 17 nM; in experiment [4], over 10000 nM; in experiment [5] it was 4570 nM; in [6] it was over 10000 nM. Besides, the IC50 came to 944 nM in experiment [7], 212 nM in [8] and 873 nM in experiment [9].

As for `O=C1NC(NC2CCCCC2)=N/C1=C\c1ccc2[nH]cnc2c1`, the half-inhibitory concentration (IC50) in experiment [1] is 3280 nM; in experiment [2], 1370 nM; in experiment [3] it was 883 nM; in experiment [4], over 10000 nM; in experiment [5], over 10000 nM; in experiment [6] it was over 10000 nM. Moreover, the IC50 in experiment [7] was 1860 nM; in [10], 37 nM; in experiment [8], 1910 nM.

Regarding `C[C@@H](NC1=N/C(=C\c2ccc3ncsc3c2)C(=O)N1)C1CCCCC1`, the 50% inhibitory concentration (IC50) in [1] was 3610 nM; in experiment [2], 304 nM; in experiment [3], 44 nM; in [4] it was over 10000 nM; in [5], over 10000 nM; in experiment [6] it was over 10000 nM. Moreover, the IC50 was found to be 6000 nM in [7], 36 nM in experiment [10] and 3020 nM in experiment [8].

With `O=C1NC(NC2CCCCC2)=N/C1=C\c1ccc2ncsc2c1`, the IC50 is 627 nM in experiment [1]; 21 nM in [3]; 9750 nM in experiment [4]; 7060 nM in [5]; 6710 nM in [6]; 663 nM in experiment [7]. Moreover, the IC50 in experiment [10] turned out to be 12 nM; in experiment [8] it was 787 nM; in [9] it was 482 nM.

With `CC(C)C[C@@H](CO)NC1=N/C(=C\c2ccc3ncsc3c2)C(=O)N1`, the IC50 in experiment [1] is 4980 nM; in [3], 49 nM; in [4], over 10000 nM; in experiment [5], 9370 nM; in experiment [6], over 10000 nM; in experiment [7], 6490 nM. Besides, the IC50 in [8] worked out at 546 nM; in experiment [9] it was 745 nM.

For `CN1CC[C@@](C)(NC2=N/C(=C\c3ccc4ncsc4c3)C(=O)N2)C1=O` (stereo in doubt), the 50% inhibitory concentration (IC50) in [1] was 795 nM; in experiment [2] it was 28 nM; in [3] it was 11 nM; in [4], over 10000 nM; in [5], 1740 nM; in experiment [6] it was over 10000 nM. Also, the half-inhibitory concentration (IC50) was found to be 1700 nM in [7], 1130 nM in experiment [8] and 390 nM in experiment [9].

Consider `CC(C)C[C@H](CF)NC1=N/C(=C\c2ccc3ncsc3c2)C(=O)N1`, for which the concentration for half-maximal inhibition (IC50) in experiment [1] was 433 nM; in [2], 27 nM; in experiment [3], 9 nM; in experiment [4], over 10000 nM; in experiment [5], 1560 nM; in experiment [6] it was over 10000 nM. The figures for the concentration for half-maximal inhibition (IC50) in experiment [7], in experiment [8] and in [9] were 927 nM, 403 nM and 657 nM, respectively.

With `CN1CCN(c2cnc(NC3=N/C(=C\c4ccc5ncsc5c4)C(=O)N3)cn2)CC1`, the IC50 in experiment [1] is 798 nM; in experiment [2], 121 nM; in experiment [3], 55 nM; in experiment [4], over 10000 nM; in experiment [5], 4120 nM; in experiment [6] it was over 10000 nM. For the same compound, the results for the IC50 in experiment [7], in experiment [10] and in experiment [8] were 1130 nM, 29 nM and 2130 nM, respectively.
